Laboratory results: patent publication US10104889B2 (priority 2011, dated 2018)
Read-outs that look alike come from different tables or passages of the source.

Columns and labels:
Format in all cases: in vivo
Alternaria solani = test: Control of disease in tomato plants inoculated with Alternaria solani; settings: 1 μM spray every 15 days for 3 months; for percentage of mortality due to disease: mortality at 3 months
Description: (§1) In order to evaluate the effect of the brassinosteroid analogue (25R)-3-hydroxy-C-homo-11-oxa-5-espirostan-12-one and a natural brassinosteroid (brassinolide), on the control of other plant diseases, experiments were conducted with tobacco and tomato plants inoculated with Phytophthora parasitica and Alternaria solani, respectively. Both the natural brassinosteroid as the analogue were applied by spraying at a concentration of 1 μM every 15 days for 3 months. The mortality rate was determined at 3 months. […] Hundred plants were used for each treatment. Untreated plants were used as controls.

Phytophthora parasitica = test: Control of disease in tobacco plants inoculated with Phytophthora parasitica; settings: 1 μM spray every 15 days for 3 months; for percentage of mortality due to disease: mortality at 3 months
Description: as §1

[1] = system: Candidatus ‘Liberibacter asiaticus’; settings: for effect on bacteria levels during the evaluation period: 1 μM spray every 15 days for 6 months, 10 HLB infected citrus plants, FIG. 5
[2] = system: Candidatus ‘Liberibacter asiaticus’; settings: 1 μM spray twice a month, area with HLB plants and Diaphorina citri, FIG. 7
[3] = system: genes related to defense against diseases of citrus plants; test: Relative expression of defense-related genes in citrus plants by real-time quantitative PCR; settings: Citrus sinensis, 20 μM spray
Description: Citrus plants (Citrus sinensis) were treated with the brassinosteroid analogue (25R)-3-hydroxy-C-homo-11-oxa-5-espirostan-12-one at 20 μM (Iglesias et al. (1998) Synthetic Communications 28: 75-81). Leaves from five plants were collected at 0, 1, 5, 10, 24 and 48 hours after spray application. Total RNA was extracted from leaves using the RNeasy kit (Qiagen, Valencia, Calif.) according to manufacturer's instructions, which includes a DNase treatment. The cDNAs were synthesized by using oligo-dT primer and reverse transcription kit SuperScript III (Invitrogen, Carlsbad, Calif.) according to manufacturer's instructions. The real-time quantitative PCR was performed using a RotorGene 3000 PCR machine (Corbett, Australia) and QuantiTect SYBR Green PCR kit (Qiagen). The reaction conditions in real-time PCR were: an initial denaturation step at 95° C. for 15 min. followed by denaturation at 95° C. for 15 s, an alignment step for 30 s at 60° C. and an extension step for 30 s at 72° C. for 40 cycles. The analysis was carried out using the RotorGene 3000 software (Corbett, Australia) and five replicates were used for each sample. Experiments were repeated twice.

[4] = system: genes related to the natural defense mechanism of plants against diseases; test: Identification of new defense genes activated in treated citrus plants by SuperSAGE; settings: Citrus sinensis, 20 μM spray, leaves 1-48 hours, FIG. 2
Description: Citrus plants (Citrus sinensis) were treated with the brassinosteroid analogue (25R)-3-hydroxy-C-homo-11-oxa-5-espirostan-12-one at 20 μM. Leaves from five plants were collected at 1, 5, 10, 24 and 48 hours after spray application. Total RNA was extracted from leaves using the RNeasy kit (Qiagen, Valencia, Calif.) according to manufacturer's instructions. The cDNAs were synthesized by using biotinylated oligo-dT primer and reverse transcription kit SuperScript III (Invitrogen, Carlsbad, Calif.) according to manufacturer's instructions. Samples of five citrus plants treated with water and collected during the times listed above were used as control. The identification and characterization of new genes was performed by the construction of two cDNA libraries by the technique of SuperSAGE (Matsumura et al. (2003) PNAS 100: 15718-15723). The control library was the mixture of leaves of plants treated with water at different times and target sample was the mixture of citrus plant leaves treated with the analogue at different times. The new genes related to plant response to the HLB, activated by application of brassinosteroid analogue, were isolated, sequenced and analyzed.

[5] = system: Candidatus ‘Liberibacter asiaticus’; settings: adult plants, natural conditions, 20 mM spray every 15 days, one year, FIG. 3B
[6] = system: Candidatus ‘Liberibacter asiaticus’; settings: HLB infected Citrus sinensis treated for one year, FIG. 4A
[7] = greenhouse, Citrus sinensis with HLB, 20 μM spray every 15 days, 6 months, FIG. 3A

In the case of `CC(C)[C@H](C)[C@@H](O)[C@H](O)[C@@H](C)[C@H]1CC[C@H]2[C@@H]3COC(=O)[C@H]4C[C@H](O)[C@H](O)C[C@]4(C)[C@H]3CC[C@]12C` [brassinolide, reference compound], the “effect on incidence of disease” value (Alternaria solani) is reported as “marked effect in reducing the incidence of diseases”, the “percentage of mortality due to disease” value (Alternaria solani) is reported as 12 percentage and the “effect on incidence of disease” value (Phytophthora parasitica) is reported as “marked effect in reducing the incidence of diseases”. The “percentage of mortality due to disease” value (Phytophthora parasitica) was 13 percentage and the “effect on bacteria levels during the evaluation period” value [1] was “significant reduction in bacteria levels”.

For `C[C@@H]1CC[C@@]2(OC1)O[C@H]1C[C@H]3[C@@H]4CC[C@H]5CC(O)CC[C@]5(C)[C@H]4OC(=O)C[C@]3(C)[C@H]1[C@@H]2C` (stereo partly drawn) [brassinosteroid analogue, (25R)-3-hydroxy-C-homo-11-oxa-5-espirostan-12-one], the “protection of citrus plants without HLB against infection” value [2] was “protect them against infection from bacteria”, the “time of highest expression of the rest of the genes” value ([3]; after application) was 5 h and the “time of highest level of expression of allene oxide synthase gene” value ([3]; after application) was 24 h. The “activation of all analyzed genes (chitinase, β-1,3-glucanase, glutathione peroxidase, phenylalanine-ammonia lyase, superoxide dismutase, allene oxide synthase)” value ([3]; leaves 0-48 hours, FIG. 1) was “activated”, the “effect on incidence of disease” value (Alternaria solani) was “marked effect in reducing the incidence of diseases” and the “percentage of mortality due to disease” value (Alternaria solani) was 9 percentage. The “effect on incidence of disease” value (Phytophthora parasitica) was “marked effect in reducing the incidence of diseases”, the “percentage of mortality due to disease” value (Phytophthora parasitica) was 11 percentage and the “activation of new genes identified by SuperSAGE” value [4] was “simultaneously activates genes related to hypersensitive response, salicylic acid and jasmonic acid/ethylene”. For the same molecule, the “Absolute concentration of the bacterium after 6 months of treatment” value (“Absolute concentration of the bacterium” below) ([1]; 0.001 μM, spray every 15 days for 6 months) was 522 Copies of the bacteria by reaction, the “Absolute concentration of the bacterium” value ([1]; 0.01 μM, spray every 15 days for 6 months) was 29 Copies of the bacteria by reaction and the “effect on bacteria levels during the evaluation period” value [1] was “significant reduction in bacteria levels”. The “levels of bacteria, application two times a month and weekly compared with a single application per month” value ([1]; 1 μM, FIG. 6) was “significantly reduced levels of bacteria, more early”, the “Absolute concentration of the bacterium” value ([1]; 1 μM, spray every 15 days for 6 months) was 1 Copies of the bacteria by reaction and the “Absolute concentration of the bacterium” value ([1]; 5 μM, spray every 15 days for 6 months) was 0 Copies of the bacteria by reaction. For the same molecule, the “Absolute concentration of the bacterium” value ([1]; 10 μM, spray every 15 days for 6 months) was 0 Copies of the bacteria by reaction, the “Absolute concentration of the bacterium” value ([1]; 20 μM, spray every 15 days for 6 months) was 0 Copies of the bacteria by reaction and the “Absolute concentration of the bacterium” value ([1]; 40 μM, spray every 15 days for 6 months) was 0 Copies of the bacteria by reaction. The “Absolute concentration of the bacterium” value ([1]; 60 μM, spray every 15 days for 6 months) was 0 Copies of the bacteria by reaction, the bacteria levels ([1]; concentrations of 0.01 and up to 60 μM, spray every 15 days for 6 months) was “drastically reduced” and the “significant reduction in levels of bacteria, from” value [1, 7] was “second month”. The “undetectable levels of bacteria reached from month” value [1, 7] was 4 month, the “significant reduction in bacteria levels, from” value [5] was “third months” and the “undetectable levels of bacteria reached from months” value [5] was 8 months. The “presence of bacteria in leaves by electron microscopy” value [6] was “presence of bacteria was not observed”.
